This note sets out measurements from patent US20140242120A1, “SUBSTITUTED AROMATIC COMPOUNDS FOR INFLAMMATION AND IMMUNE-RELATED USES” (Synta Pharmaceuticals Corp., priority 2006, published 2014).

Some results are limits rather than exact numbers.

In general, IC50 refers to the concentration that gives 50% inhibition.

In this assay the test system is IL-2 production. Put plainly: Inhibition of IL-2 production in PHA-activated Jurkat cells (ELISA). Type of assay: cell-based. The following applies: Homo sapiens, PHA 2.5 μg/mL, 20 hours, IL-2 ELISA. As for the experimental part:
Jurkat cells were placed in a 96 well plate (0.5 million cells per well in 1% FBS medium) then a test compound of this invention was added at different concentrations. After 10 minutes, the cells were activated with PHA. (final concentration 2.5 μg/mL) and incubated for 20 hours at 37° C. under CO2. The final volume was 200 μL. Following incubation, the cells were centrifuged and the supernatants collected and stored at −70° C. prior to assaying for IL-2 production. A commercial ELISA kit (IL-2 Eli-pair, Diaclone Research, Besancon, France) was used to detect production of IL-2, from which dose response curves were obtained. The IC50 value was calculated as the concentration at which 50% of maximum IL-2 production after stimulation was inhibited versus a non-stimulation control.
In general terms: ELISA stands for enzyme-linked immunosorbent assay.

`Cc1ccc(-c2ncco2)cc1-c1ccc(NS(=O)(=O)c2c(F)cccc2F)cc1` [Compound 1, 2,6-Difluoro-N-(2′-methyl-5′-oxazol-2-yl-biphenyl-4-yl)-benzenesulfonamide] registered an IC50 of 50 to 500 nM.

`Cc1ccc(-c2cnco2)cc1-c1ccc(NC(=O)Nc2c(F)cccc2F)cc1` [Compound 4, 1-(2,6-Difluoro-phenyl)-3-(2′-methyl-5′-oxazol-5-yl-biphenyl-4-yl)-urea] displayed an IC50 of less than 25 nM. `Cc1ccc(-c2ncco2)cc1-c1ccc(NC(=O)Nc2ncncc2C)cc1` [Compound 74, 1-(2′-Methyl-5′-(oxazol-2-yl)biphenyl-4-yl)-3-(5-methylpyrimidin-4-yl)urea] displayed a half-inhibitory concentration (IC50) of 25 to 50 nM. `Cc1ccc(-c2ncco2)cc1-c1ccc(/N=C/c2c(F)cccc2F)cc1` [Compound 76, (E)-N-(2,6-difluorobenzylidene)-2′-methyl-5′-(oxazol-2-yl)biphenyl-4-amine] had an IC50 of 500 to 1000 nM. As for `COC(=O)c1ccc(C)c(-c2ccc(NNC(=O)c3c(F)cccc3F)cc2)c1` [Compound 77, methyl 4′-(2-(2,6-difluorobenzoyl) hydrazinyl)-6-methylbiphenyl-3-carboxylate], the IC50 lay within 50 to 500 nM.
